In ChEMBL document CHEMBL1137869 (Bioorg Med Chem Lett, 2004):

Legend:
[1] = biological target: T1, Platelet-derived growth factor receptor beta (Homo sapiens, UniProt P09619); assay: In vitro inhibition of Platelet derived growth factor receptor beta autophosphorylation in MG-63 cells without plasma; format: cell-based
[2] = Inhibition of PDGFR-beta/c-Kit chimeric receptor autophosphorylation in CHO cells; format: cell-based
[3] = biological target: T1, Platelet-derived growth factor receptor beta; assay: Inhibition of Platelet derived growth factor receptor beta autophosphorylation in CHO cells; format: cell-based
[4] = Inhibition of PDGFR-beta/Flt-3 chimeric receptor autophosphorylation in CHO cells; format: cell-based
[5] = biological target: T1, Platelet-derived growth factor receptor beta; assay: In vitro inhibition of Platelet derived growth factor receptor beta autophosphorylation in MG-63 cells with 45% human plasma; format: cell-based
[6] = Plasma half life was determined in rat by iv/po dose at 30 mg/kg; format: ADME, organism-based; set-up: dose 30 mg/kg
[7] = Maximum concentration was determined in dog by iv/po dose at 8.09 mg/kg; format: ADME, organism-based, Canis lupus familiaris; set-up: dose 8.09 mg/kg; conditions: in vivo
[8] = Maximum concentration was determined in monkey by iv/po dose at 10 mg/kg; format: ADME, organism-based; set-up: dose 10 mg/kg; conditions: cercopithecidae, in vivo
[9] = Percent bioavailability was determined in dog by iv/po dose at 8.09 mg/kg; format: ADME, organism-based, Canis lupus familiaris; conditions: in vivo
[10] = Plasma half life was determined in dog by iv/po dose at 8.09 mg/kg; format: ADME, organism-based, Canis lupus familiaris; set-up: dose 8.09 mg/kg
[11] = Maximum concentration was determined in rat by iv/po dose at 30 mg/kg; format: ADME, organism-based; set-up: dose 30 mg/kg; conditions: in vivo
[12] = Plasma half life was determined in monkey by iv/po dose at 10 mg/kg; format: ADME, organism-based; set-up: dose 10 mg/kg; conditions: cercopithecidae
[13] = Bioavailability in rat (dose 30 mg/kg i.v./p.o.); format: ADME, organism-based; conditions: in vivo, po
[14] = Area under curve was determined in rat by peroral dose at 30 mg/kg; format: ADME, organism-based; set-up: dose 30 mg/kg, route oral; conditions: in vivo, po

T1 sequence (P09619 whole entry): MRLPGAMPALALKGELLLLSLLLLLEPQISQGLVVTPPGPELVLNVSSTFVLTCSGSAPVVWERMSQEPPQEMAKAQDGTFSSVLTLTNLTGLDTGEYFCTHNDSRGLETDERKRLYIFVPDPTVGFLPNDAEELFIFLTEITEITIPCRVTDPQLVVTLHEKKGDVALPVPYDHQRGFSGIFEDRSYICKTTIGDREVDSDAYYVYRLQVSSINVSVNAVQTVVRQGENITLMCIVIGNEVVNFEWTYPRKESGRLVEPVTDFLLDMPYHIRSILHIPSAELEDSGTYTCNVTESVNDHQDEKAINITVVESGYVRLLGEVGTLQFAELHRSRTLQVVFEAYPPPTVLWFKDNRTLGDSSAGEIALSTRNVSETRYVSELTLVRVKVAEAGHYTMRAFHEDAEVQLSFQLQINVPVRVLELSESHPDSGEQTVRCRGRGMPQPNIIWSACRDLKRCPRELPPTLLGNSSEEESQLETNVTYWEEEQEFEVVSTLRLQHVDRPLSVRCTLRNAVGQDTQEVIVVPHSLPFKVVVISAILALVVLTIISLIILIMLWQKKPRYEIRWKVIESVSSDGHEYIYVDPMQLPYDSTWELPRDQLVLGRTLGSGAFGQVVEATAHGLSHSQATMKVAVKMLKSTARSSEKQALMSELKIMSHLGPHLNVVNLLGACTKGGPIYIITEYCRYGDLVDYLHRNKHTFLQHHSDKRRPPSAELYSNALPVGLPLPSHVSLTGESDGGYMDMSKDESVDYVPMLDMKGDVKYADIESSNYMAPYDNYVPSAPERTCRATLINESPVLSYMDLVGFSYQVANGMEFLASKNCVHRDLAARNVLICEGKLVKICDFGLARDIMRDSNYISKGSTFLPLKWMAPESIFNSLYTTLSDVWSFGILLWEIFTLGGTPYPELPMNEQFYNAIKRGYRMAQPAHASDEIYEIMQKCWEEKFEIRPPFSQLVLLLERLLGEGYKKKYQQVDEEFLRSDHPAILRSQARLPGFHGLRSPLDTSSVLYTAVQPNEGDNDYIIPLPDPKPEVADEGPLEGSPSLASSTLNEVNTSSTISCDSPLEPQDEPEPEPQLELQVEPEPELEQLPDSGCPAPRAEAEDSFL

Structure (SMILES)	IC50 [1] [nM]	IC50 [5] [nM]	also measured
COc1cc2c(N3CCN(/C(S)=N\Cc4ccccn4)CC3)ncnc2cc1OCCN1CCCCC1	4090		
COc1cc2c(N3CCN(C(=S)Nc4ccncc4)CC3)ncnc2cc1OCCCN1CCCCC1	220	60	IC50 [2]: 1850 nM; IC50 [3]: 580 nM; IC50 [4]: 24200 nM
COc1cc2c(N3CCN(/C(S)=N\Cc4ccc5c(c4)OCO5)CC3)ncnc2cc1OCCN1CCOCC1	100	260	
COc1cc2c(N3CCN(C(=S)NCc4csc(C)n4)CC3)ncnc2cc1OCCCN1CCCCC1	630	450	
COc1cc2c(N3CCN(/C(S)=N\c4ccncc4)CC3)ncnc2cc1OCCN1CCCCC1	240	400	IC50 [2]: 2970 nM; IC50 [3]: 980 nM; IC50 [4]: > 30000 nM
COc1cc2c(N3CCN(/C(=N\c4ccc(-c5ccccn5)cc4)NC#N)CC3)ncnc2cc1OCCCN1CCCCC1	420	370	
COc1cc2c(N3CCN(/C(S)=N\Cc4ccc(C(F)(F)F)nc4)CC3)c(C#N)cnc2cc1OCCCN1CCCCC1	3	10	IC50 [2]: 20 nM; IC50 [3]: 10 nM; IC50 [4]: 40 nM
COc1cc2c(N3CCN(C(=S)NCc4ccc5c(c4)OCO5)CC3)ncnc2cc1OCCN1CCCCC1	20	120	IC50 [2]: 60 nM; half-life [6]: 26.7 h; IC50 [3]: 40 nM; Cmax [7]: 456 ng/mL; Cmax [8]: 92.5 ng/mL; bioavailability [9]: 102%; IC50 [4]: 2910 nM; half-life [10]: 15.7 h; Cmax [11]: 146 ng/mL; half-life [12]: 9.25 h; bioavailability [13]: 39.1%; AUC [14]: 69 µg/h/mL
COc1cc2c(N3CCN(/C(S)=N\c4ccc(-c5ccccn5)cc4)CC3)c(C#N)cnc2cc1OCCCN1CCCCC1	220	130	
COc1cc2c(N3CCN(/C(S)=N\Cc4ccc5c(c4)OCO5)CC3)ncnc2cc1OCCN1CCCC1	5	160	
COc1cc2c(N3CCN(C(=S)Nc4ccc(-c5ccccn5)cc4)CC3)ncnc2cc1OCCCN1CCCCC1	220	100	
COc1cc2c(N3CCN(C(=S)NCc4ccc(-c5cccnc5)cc4)CC3)ncnc2cc1OCCN1CCCCC1	14800	5190	
COc1cc2c(N3CCN(C(=S)Nc4cccnc4)CC3)ncnc2cc1OCCN1CCCCC1	3760	4980	
COc1cc2c(N3CCN(/C(S)=N\Cc4ccc(C)nc4)CC3)ncnc2cc1OCCCN1CCCCC1	140	90	IC50 [2]: 240 nM; IC50 [3]: 140 nM; IC50 [4]: > 30000 nM
COc1cc2c(N3CCN(/C(S)=N\c4ccc(Br)cc4)CC3)ncnc2cc1OCCN1CCOCC1	180	540	
COc1cc2c(N3CCN(/C(=N\Cc4ccc5c(c4)OCO5)NC#N)CC3)ncnc2cc1OCCCN1CCCCC1	320	590	
COc1cc2c(N3CCN(C(=S)NCc4ccc(-c5ccncc5)cc4)CC3)ncnc2cc1OCCN1CCCCC1	9530	5040	
COc1cc2c(N3CCN(/C(S)=N\Cc4cccnc4)CC3)ncnc2cc1OCCN1CCCCC1	2110	710	
COc1cc2c(N3CCN(C(=S)NCc4cnc(C)cn4)CC3)ncnc2cc1OCCCN1CCCCC1	140	50	IC50 [2]: 1520 nM; IC50 [3]: 1350 nM; IC50 [4]: > 30000 nM

Structure (SMILES)	IC50 [1] [nM]	IC50 [5] [nM]	also measured
COc1cc2c(N3CCN(C(=S)Nc4ccc(-c5ccccc5)cn4)CC3)ncnc2cc1OCCCN1CCCCC1	1980	550	
COc1cc2c(N3CCN(/C(S)=N\c4ccc(Cl)nn4)CC3)ncnc2cc1OCCN1CCCCC1	420	1330	
COc1cc2c(N3CCN(/C(S)=N\Cc4ccnc(Cl)c4)CC3)ncnc2cc1OCCN1CCCCC1	1790	770	
COc1cc2c(N3CCN(/C(S)=N\c4nccs4)CC3)ncnc2cc1OCCN1CCCCC1	2000	5040	
COc1cc2c(N3CCN(C(=S)NCc4ccc(-c5ccccn5)cc4)CC3)ncnc2cc1OCCN1CCCCC1	2130	1490	
COc1cc2c(N3CCN(/C(S)=N\Cc4cccnc4)CC3)ncnc2cc1OCCCN1CCCCC1	50	320	
COc1cc2c(N3CCN(/C(S)=N\c4ccc(Br)cc4)CC3)ncnc2cc1OCCN1CCCCC1	1010	390	
COc1cc2c(N3CCN(C(=S)NCc4ccncc4)CC3)ncnc2cc1OCCN1CCCCC1	12100	3590	
COc1cc2c(N3CCN(C(=NC#N)Nc4ccncc4)CC3)ncnc2cc1OCCCN1CCCCC1	31700	17100	
COc1cc2c(N3CCN(/C(S)=N\c4ccc(-c5cccc[n+]5[O-])cc4)CC3)ncnc2cc1OCCN1CCCCC1	800	430	
COc1cc2c(N3CCN(/C(S)=N\Cc4ccc(C(F)(F)F)nc4Cl)CC3)ncnc2cc1OCCN1CCCCC1	1130	1400	IC50 [2]: 790 nM; IC50 [3]: 100 nM; IC50 [4]: 6770 nM
COc1cc2c(N3CCN(/C(S)=N\c4ccc(C(F)(F)F)nc4)CC3)ncnc2cc1OCCN1CCCCC1	4100	1060	
COc1cc2c(N3CCN(C(=S)NCc4ccc(Cl)nc4)CC3)ncnc2cc1OCCCN1CCCCC1	20	60	
COc1cc2c(N3CCN(C(=S)Nc4ccc(Br)cc4)CC3)ncnc2cc1OCCN1CCCC1	350	470	
COc1cc2c(N3CCN(C(=S)NCc4ccc(Cl)nc4)CC3)ncnc2cc1OCCN1CCCCC1	1010	80	IC50 [2]: 70 nM; IC50 [3]: 50 nM; IC50 [4]: > 30000 nM
COc1cc2c(N3CCN(C(=S)Nc4ccncc4)CC3)c(C#N)cnc2cc1OCCCN1CCCCC1	240	130	
COc1cc2c(N3CCN(/C(S)=N\Cc4ccco4)CC3)ncnc2cc1OCCN1CCCC1	160	310	IC50 [2]: 1800 nM; IC50 [3]: 290 nM; IC50 [4]: > 30000 nM
COc1cc2c(N3CCN(/C(S)=N\Cc4ccc(C)o4)CC3)ncnc2cc1OCCCN1CCCCC1	80	90	IC50 [2]: 50 nM; IC50 [3]: 80 nM; IC50 [4]: > 30000 nM
COc1cc2c(N3CCN(C(=S)NCc4csc(-c5ccc(C(F)(F)F)cc5)n4)CC3)ncnc2cc1OCCCN1CCCCC1	3090	4470	

Structure (SMILES)	IC50 [1] [nM]	IC50 [5] [nM]	also measured
COc1cc2c(N3CCN(/C(S)=N\Cc4ccc(-c5ccccc5)nc4)CC3)ncnc2cc1OCCCN1CCCCC1	20	130	
COc1cc2c(N3CCN(C(=S)Nc4ccc(Cl)nc4)CC3)ncnc2cc1OCCN1CCCCC1	890	510	IC50 [2]: 500 nM; IC50 [3]: 360 nM; IC50 [4]: 19800 nM
COc1cc2c(N3CCN(/C(S)=N\c4ccc(-c5ccccc5)nc4)CC3)c(C#N)cnc2cc1OCCCN1CCCCC1	150	280	
COc1cc2c(N3CCN(/C(S)=N\c4ccc(C#N)cc4)CC3)c(C#N)cnc2cc1OCCCN1CCCCC1	5	120	
COc1cc2c(N3CCN(/C(S)=N\Cc4ccc(C(F)(F)F)nc4)CC3)ncnc2cc1OCCCN1CCOCC1	5	50	
COc1cc2c(N3CCN(/C(S)=N\c4ccsc4)CC3)ncnc2cc1OCCN1CCCCC1	100	740	
COc1cc2c(N3CCN(/C(S)=N\c4ccnc(C#N)c4)CC3)ncnc2cc1OCCN1CCCCC1	1540	1790	
COc1cc2c(N3CCN(C(=NC#N)Nc4ccc(C(C)(C)C)cc4)CC3)ncnc2cc1OCCCN1CCCCC1	800	1550	
COc1cc2c(N3CCN(C(=S)NCc4ccc(C(F)(F)F)nc4)CC3)ncnc2cc1OCCN1CCCCC1	1030	90	IC50 [2]: 240 nM; IC50 [3]: 150 nM; IC50 [4]: > 30000 nM
COc1cc2c(N3CCN(C(=S)NCc4ccc(C)nc4Cl)CC3)ncnc2cc1OCCN1CCCCC1	1150	350	
COc1cc2c(N3CCN(C(=S)NCc4ccc(C(F)(F)F)nc4)CC3)ncnc2cc1OCCCN1CCCCC1	30	60	
COc1cc2c(N3CCN(/C(=N\Cc4ccc(C(F)(F)F)nc4)NC#N)CC3)ncnc2cc1OCCCN1CCCCC1	3420	2180	
COc1cc2c(N3CCN(C(=S)NCc4ccc(N)nc4)CC3)ncnc2cc1OCCN1CCCCC1	5810	2930	
COc1cc2c(N3CCN(C(=S)NCc4cnc(C)cn4)CC3)ncnc2cc1OCCN1CCOCC1	1360	230	
COc1cc2c(N3CCN(C(=S)Nc4ccc(-c5ccccc5)nc4)CC3)ncnc2cc1OCCCN1CCCCC1	360	270	IC50 [2]: 190 nM; IC50 [3]: 100 nM; IC50 [4]: 5550 nM
COc1cc2c(N3CCN(/C(=N\Cc4ccc(C(C)C)cc4)NC#N)CC3)ncnc2cc1OCCCN1CCCCC1	920	970	
COc1cc2c(N3CCN(/C(=N\Cc4cc(C)on4)NC#N)CC3)ncnc2cc1OCCCN1CCCCC1	10500	2370	
COc1cc2c(N3CCN(C(=S)NCc4ccc(-c5ccccc5)nc4)CC3)c(C#N)cnc2cc1OCCCN1CCCCC1	10	100	
COc1cc2c(N3CCN(C(=S)NCc4ccncc4)CC3)ncnc2cc1OCCCN1CCCCC1	13400	2450	
